Reference: ChEMBL document CHEMBL5252667, “Discovery and Optimization of a Novel Macrocyclic Amidinourea Series Active as Acidic Mammalian Chitinase Inhibitors” (ACS Med Chem Lett, 2023)
pKi: −log10 of the molar value. ≈ marks a conversion by molar mass, not a printed value.

How the values were obtained:
[1] = Aqueous solubility of the compound by HPLC-UV/MS analysis; format: physicochemical; conditions: water (aqueous)
[2] = Apparent permeability of compound in phosphate buffer by PAMPA assay; format: ADME
[3] = Metabolic stability in human liver microsomes assessed as parent compound remaining in the presence of NADPH generating system by HPLC-UVMS analysis; format: ADME, Microsome
Candida = test: Antifungal activity against Candida spp.; format: functional
Chitotriosidase-1 [4] = molecular target: T1, Chitotriosidase-1 (Homo sapiens, UniProt Q13231); test: Inhibition of human CHIT1 using 4-methylumbelliferyl-beta-D-N,N',N''-triacetylchitotriose as substrate assessed as substrate hydrolysis by measuring inhibition constant preincubated with compound for 20 mins and measured immediately after substrate addition by fluorescence based assay relative to control
Target sequence in this assay (Q13231 whole entry): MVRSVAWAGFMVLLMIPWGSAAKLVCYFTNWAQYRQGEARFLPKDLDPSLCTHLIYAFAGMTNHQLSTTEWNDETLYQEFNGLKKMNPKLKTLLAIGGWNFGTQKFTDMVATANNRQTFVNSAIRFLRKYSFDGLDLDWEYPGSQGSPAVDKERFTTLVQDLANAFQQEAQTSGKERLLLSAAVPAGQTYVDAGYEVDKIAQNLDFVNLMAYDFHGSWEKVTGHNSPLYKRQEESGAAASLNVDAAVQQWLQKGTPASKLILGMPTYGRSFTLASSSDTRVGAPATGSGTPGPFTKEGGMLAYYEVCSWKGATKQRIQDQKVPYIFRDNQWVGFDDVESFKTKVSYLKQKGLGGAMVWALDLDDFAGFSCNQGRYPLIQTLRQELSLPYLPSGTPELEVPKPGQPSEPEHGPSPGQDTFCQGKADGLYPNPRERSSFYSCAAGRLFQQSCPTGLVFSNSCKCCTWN

[5] = molecular target: Acidic mammalian chitinase (Homo sapiens, UniProt Q9BZP6); test: Inhibition of human AMCase using 4-methylumbelliferyl-beta-D-N,N',N''-triacetylchitotriose as substrate assessed as substrate hydrolysis by measuring inhibition constant preincubated with compound for 20 mins and measured immediately after substrate addition by fluorescence based assay
Chitotriosidase-1 [6] = molecular target: T1, Chitotriosidase-1; test: Inhibition of human CHIT1 using 4-methylumbelliferyl-beta-D-N,N',N''-triacetylchitotriose as substrate assessed as substrate hydrolysis at 10 uM preincubated with compound for 20 mins and measured immediately after substrate addition by fluorescence based assay relative to control
Target sequence in this assay (Q13231 22-466 limits assumed): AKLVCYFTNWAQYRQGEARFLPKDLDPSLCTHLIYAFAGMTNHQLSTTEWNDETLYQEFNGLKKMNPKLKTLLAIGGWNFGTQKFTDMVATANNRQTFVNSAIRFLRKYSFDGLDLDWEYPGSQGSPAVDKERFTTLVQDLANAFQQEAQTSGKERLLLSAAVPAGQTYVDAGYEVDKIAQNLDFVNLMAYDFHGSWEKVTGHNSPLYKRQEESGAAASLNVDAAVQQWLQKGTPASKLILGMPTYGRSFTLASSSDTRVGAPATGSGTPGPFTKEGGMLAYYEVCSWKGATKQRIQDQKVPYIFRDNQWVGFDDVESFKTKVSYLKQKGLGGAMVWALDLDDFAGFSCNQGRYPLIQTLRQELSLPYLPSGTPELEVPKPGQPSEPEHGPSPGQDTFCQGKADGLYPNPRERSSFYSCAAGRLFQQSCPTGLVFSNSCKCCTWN

Sequence of Acidic mammalian chitinase (Q9BZP6 whole entry): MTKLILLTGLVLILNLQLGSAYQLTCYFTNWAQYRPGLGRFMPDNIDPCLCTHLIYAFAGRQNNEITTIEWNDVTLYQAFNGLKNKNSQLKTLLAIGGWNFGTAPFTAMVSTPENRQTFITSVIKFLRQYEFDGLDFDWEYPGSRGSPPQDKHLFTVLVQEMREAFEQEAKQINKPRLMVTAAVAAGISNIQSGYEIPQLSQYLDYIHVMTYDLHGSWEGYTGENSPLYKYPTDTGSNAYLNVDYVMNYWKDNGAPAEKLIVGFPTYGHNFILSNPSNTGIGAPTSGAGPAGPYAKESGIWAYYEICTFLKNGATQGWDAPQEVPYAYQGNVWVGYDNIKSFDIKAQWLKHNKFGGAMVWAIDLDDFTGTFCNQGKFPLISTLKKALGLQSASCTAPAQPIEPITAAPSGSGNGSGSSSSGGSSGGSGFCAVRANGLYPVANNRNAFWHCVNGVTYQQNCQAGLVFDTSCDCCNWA

SMILES | solubility [1] [µg/mL] | Papp [2] [×10⁻⁶ cm/s] | Stability [3] [%] | pKi (Chitotriosidase-1 [4]) | also measured
C/C=C/CNC(=N)NCCCCCCCCN1CCCc2ccccc2COc2ccccc2CNC(=N)NC1=O | – | – | – | – | MIC (Candida): 1 µg/mL (≈ 0.00178 mM)
C/C=C/CNC(=N)NCCCCCCCCN1CCCCCCOc2ccccc2CNC(=N)NC1=O | – | – | – | – | MIC (Candida): 1 µg/mL (≈ 0.00195 mM)
C/C=C/CNC(=N)NCCCCCCCCN1CCCCCCCCNC(=N)NC1=O | – | – | – | – | MIC (Candida): 1 µg/mL (≈ 0.0023 mM)
CNC(=S)NC(=N)NCCCCCCCCN1CCCCCCOc2ccccc2CNC(=N)NC1=O | – | – | – | < 4.30 | –
CNC(=O)NC(=N)NCCCCCCCCN1CCCc2cc(Cl)ccc2COc2ccccc2CNC(=N)NC1=O | 23100 (≈ 38.6 mM) | < 0.5 | 91.5 | – | –
CNC(=O)NC(=N)NCCCCCCCCN1CCCc2ccccc2COc2cc(C)ccc2CNC(=N)NC1=O | – | – | – | < 4.30 | –
CNC(=O)NC(=N)NCCCCCCCCN1CCCc2ccc(OC(F)(F)F)cc2COc2ccccc2CNC(=N)NC1=O | – | – | – | – | pKi [5]: < 4.30
Cn1cnc2c1c(=O)n(CCCn1c(=O)c3nc[nH]c3n(C)c1=O)c(=O)n2C | – | – | – | 8.85 | inhibition (Chitotriosidase-1 [6]): 98%; pKi [5]: 6.59
CNC(=O)NC(=N)NCCCCCCCCN1CCCCCCCCNC(=N)NC1=O | – | – | – | < 4.30 | –

Second part, led by results:

solubility [1] [µg/mL] | Papp [2] [×10⁻⁶ cm/s] | Stability [3] [%] | pKi (Chitotriosidase-1 [4]) | SMILES | also measured
3080 (≈ 5.17 mM) | < 0.5 | 98.7 | – | CNC(=O)NC(=N)NCCCCCCCCN1CCCc2ccccc2COc2ccc(OC)cc2CNC(=N)NC1=O | –
2850 (≈ 4.9 mM) | < 0.5 | 98.5 | – | CNC(=O)NC(=N)NCCCCCCCCN1CCCc2ccc(F)cc2COc2ccccc2CNC(=N)NC1=O | –
– | – | – | < 4.30 | CNC(=O)NC(=N)NCCCCCCCCN1CCCc2ccccc2COc2cc(Cl)ccc2CNC(=N)NC1=O | –
2010 (≈ 3.57 mM) | < 0.5 | 76.2 | – | CNC(=O)NC(=N)NCCCCCCCCN1CCCc2ccccc2COc2ccccc2CNC(=N)NC1=O | –
1810 (≈ 3.6 mM) | < 0.5 | 80.9 | – | CNC(=O)NC(=N)NCCCCCCCCN1CCCCCOc2ccccc2CNC(=N)NC1=O | –
